This assay has as its system CD2F1 mice, L1210 leukemia ip, survival T/C. Description: NCI In Vivo Anticancer Drug Screen. Data for tumor model L1210 Leukemia (intraperitoneal) in CD2F1 (CDF1) mice. The following applies: endpoint: mean survival time, higher = longer survival. A digest of the protocol:
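Ratio T/C, where T is the treated-group value and C the vehicle-dosed control value, from mice implanted with a transplantable tumor.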

Setting [1] is: dose: 25.0 mg/kg/injection, schedule: Q01DX009 (ip), vehicle: saline with Tween-80.
Where [2] appears, read: dose: 50.0 mg/kg/injection, schedule: Q01DX009 (ip), vehicle: saline with Tween-80.
Setting [3] is: dose: 6.25 mg/kg/injection, schedule: Q01DX009 (ip), vehicle: saline with Tween-80.
Setting [4] is: dose: 12.5 mg/kg/injection, schedule: Q01DX009 (ip), vehicle: saline with Tween-80.
[5] abbreviates: dose: 100.0 mg/kg/injection, schedule: Q01DX001 (ip), vehicle: saline with Tween-80.
Setting [6] is: dose: 400.0 mg/kg/injection, schedule: Q01DX001 (ip), vehicle: saline with Tween-80.
The mark [7] stands for this setting: dose: 100.0 mg/kg/injection, schedule: Q01DX009 (ip), vehicle: saline.
The mark [8] stands for this setting: dose: 200.0 mg/kg/injection, schedule: Q01DX001 (ip), vehicle: saline with Tween-80.
Setting [9] is: dose: 100.0 mg/kg/injection, schedule: Q04DX003 (ip), vehicle: saline.
[10] abbreviates: dose: 100.0 mg/kg/injection, schedule: Q04DX003 (ip), vehicle: saline with Tween-80.
Where [11] appears, read: dose: 200.0 mg/kg/injection, schedule: Q04DX003 (ip), vehicle: saline with Tween-80.
Setting [12] is: dose: 400.0 mg/kg/injection, schedule: Q04DX003 (ip), vehicle: saline with Tween-80.
The mark [13] stands for this setting: dose: 75.0 mg/kg/injection, schedule: Q01DX001 (ip), vehicle: saline.
Setting [14] is: dose: 150.0 mg/kg/injection, schedule: Q01DX001 (ip), vehicle: saline.
Where [15] appears, read: dose: 300.0 mg/kg/injection, schedule: Q01DX001 (ip), vehicle: saline.

Where “and” joins values, the source holds several entries; their conditions need not be identical. Equal entries are not always repeated. Toxic doses and inconclusive results are not listed.

In the case of `N#CCCOCC(COCCC#N)OCCC#N`, the T/C is 97 % of control and 103 % of control under setting [1]; 98 % of control and 103 % of control under setting [2]; 97 % of control and 110 % of control (dose: 100.0 mg/kg/injection, schedule: Q01DX009 (ip), vehicle: saline with Tween-80); 89 % of control and 103 % of control (dose: 200.0 mg/kg/injection, schedule: Q01DX009 (ip), vehicle: saline with Tween-80).

For the molecule `COc1ccc(N=NNc2ccc(OC)cc2)cc1`, the T/C is, setting by setting: under setting [3], 100 % of control; under setting [4], 96 % of control; under setting [1], 102 % of control.

For `CCCCCCCCCCC(=O)CCCCCC`, the T/C is 89 % of control (dose: 100.0 mg/kg/injection, schedule: Q04DX003 (ip), vehicle: other); 92 % of control (dose: 200.0 mg/kg/injection, schedule: Q04DX003 (ip), vehicle: other); 118 % of control (dose: 400.0 mg/kg/injection, schedule: Q04DX003 (ip), vehicle: other).

Regarding `Nc1nc(-c2cccc([N+](=O)[O-])c2)c(N=Nc2cccc([N+](=O)[O-])c2)s1`, the T/C reads like this: under setting [5], 89 % of control; under setting [6], 90 % of control.

On to `C=C1C(=O)OCC1(C(=O)OCC)C(=O)OCC`, for which the T/C is, setting by setting: (dose: 5.0 mg/kg/injection, schedule: Q01DX001 (ip), vehicle: saline) 100 % of control; (dose: 10.0 mg/kg/injection, schedule: Q01DX001 (ip), vehicle: saline) 100 % of control; (dose: 20.0 mg/kg/injection, schedule: Q01DX001 (ip), vehicle: saline) 100 % of control; (dose: 40.0 mg/kg/injection, schedule: Q01DX001 (ip), vehicle: saline) 108 % of control.

For the molecule `Cc1cc(C)[nH]c(=O)c1`, the T/C is 106 % of control under setting [7]; 106 % of control (dose: 200.0 mg/kg/injection, schedule: Q01DX009 (ip), vehicle: saline); 106 % of control (dose: 400.0 mg/kg/injection, schedule: Q01DX009 (ip), vehicle: saline).

As for `COC1OC(CCl)C(Cl)C(OC)C1OC` (stereo not given), the T/C runs as follows: under setting [5], 96 % of control; under setting [8], 91 % of control; under setting [6], 87 % of control.

For the molecule `Cn1nc(C#N)c2ccccc21`, the T/C is, setting by setting: (dose: 100.0 mg/kg/injection, schedule: Q01DX001 (ip), vehicle: saline) 100 % of control; (dose: 200.0 mg/kg/injection, schedule: Q01DX001 (ip), vehicle: saline) 102 % of control; (dose: 400.0 mg/kg/injection, schedule: Q01DX001 (ip), vehicle: saline) 103 % of control.

Consider `OCC1OC(n2ncc3c2N=CN2CCN=C32)C(O)C1O` (stereo not given), for which the T/C (dose: 12.5 mg/kg/injection, schedule: Q01DX009 (ip), vehicle: water) was 95 % of control; the T/C (dose: 25.0 mg/kg/injection, schedule: Q01DX009 (ip), vehicle: water) was 98 % of control; the T/C (dose: 50.0 mg/kg/injection, schedule: Q01DX009 (ip), vehicle: water) is 102 % of control; the T/C (dose: 100.0 mg/kg/injection, schedule: Q01DX009 (ip), vehicle: water) was 95 % of control; the T/C (dose: 200.0 mg/kg/injection, schedule: Q01DX009 (ip), vehicle: water) was 95 % of control.

Regarding `CC(=O)OCC(OC(C)=O)C1OC(OC2CCCCC2)C(OC(C)=O)C(OC(C)=O)C1OC(C)=O` (stereo not given), the T/C is 93 % of control under setting [5], 98 % of control under setting [8] and 88 % of control under setting [6].

In the case of `CCC(C)CC(C)C1=NC(C)(C)CC(C)O1` (stereo not given), the T/C is 104 % of control under setting [5] and 90 % of control under setting [8].

Take `COC(=O)N1C=Cc2ccccc2C1C#N` (stereo not given): the T/C (dose: 25.0 mg/kg/injection, schedule: Q01DX009 (ip), vehicle: saline) was 89 % of control; the T/C (dose: 50.0 mg/kg/injection, schedule: Q01DX009 (ip), vehicle: saline) is 98 % of control; the T/C under setting [7] is 88 % of control.

`CN(C)CCC(=O)/C=C\c1ccccc1`: the T/C under setting [9] was 89 % of control.

For `CC1=CC(CO)C2C(=O)NC(=O)C2C1C` (stereo not given), the T/C (dose: 100.0 mg/kg/injection, schedule: Q01DX001 (ip), vehicle: Klucel (hydroxypropylcellulose) (HPC)) was 98 % of control; the T/C (dose: 200.0 mg/kg/injection, schedule: Q01DX001 (ip), vehicle: Klucel (hydroxypropylcellulose) (HPC)) is 105 % of control; the T/C (dose: 400.0 mg/kg/injection, schedule: Q01DX001 (ip), vehicle: Klucel (hydroxypropylcellulose) (HPC)) was 105 % of control.

As to `O=C(O)C1=C(C(=O)O)C2C3CC4C(C13)C42`, the T/C is 101 % of control under setting [10], 100 % of control under setting [11] and 88 % of control under setting [12].

On to `NCCCNc1ccc([N+](=O)[O-])cc1`, for which the T/C reads like this: under setting [13], 98 % of control; under setting [14], 106 % of control; under setting [15], 98 % of control.

Turning to `CC(C)N1CCOC1c1ccccc1` (stereo not given), the T/C runs as follows: under setting [13], 101 % of control; under setting [14], 101 % of control; under setting [15], 97 % of control.

For the molecule `ClC(Cl)=[C](Cl)[Hg][C](Cl)=C(Cl)Cl`, the T/C under setting [3] is 93 % of control.

As for `COc1ccc(CCl)cc1CCl`, the T/C is 102 % of control under setting [10] and 91 % of control under setting [11].

Turning to `O=C(O)CNC(=O)C(Br)Cc1ccccc1` (stereo not given), the T/C is, setting by setting: under setting [10], 101 % of control; under setting [11], 101 % of control; under setting [12], 103 % of control.

`O=C1C=C(NC2CCCCCC2)C(=O)c2nccnc21`: the T/C runs as follows: under setting [3], 91 % of control; under setting [4], 95 % of control; under setting [1], 91 % of control; under setting [2], 93 % of control.

On to `CC(C)[C@]1(O)CC[C@H]2[C@@H]3CCc4cc(O)ccc4[C@H]3CC[C@@]21C`, for which the T/C runs as follows: (dose: 100.0 mg/kg/injection, schedule: Q01DX009 (sc), vehicle: Klucel (hydroxypropylcellulose) (HPC)) 104 % of control; (dose: 200.0 mg/kg/injection, schedule: Q01DX009 (sc), vehicle: Klucel (hydroxypropylcellulose) (HPC)) 98 % of control; (dose: 400.0 mg/kg/injection, schedule: Q01DX009 (sc), vehicle: Klucel (hydroxypropylcellulose) (HPC)) 92 % of control.

In the case of `O=C1c2cccc(O)c2C(=O)c2cccc(O)c21`, the T/C reads like this: under setting [10], 102 % of control; under setting [11], 94 % of control; under setting [12], 105 % of control.

On to `O=C(O)C1(C(=O)O)CCCCC1.[NH2-].[NH2-].[Pt+2]`, for which the T/C was 108 % of control (dose: 12.5 mg/kg/injection, schedule: Q04DX003 (ip), vehicle: suspension in saline); 122 % of control (dose: 25.0 mg/kg/injection, schedule: Q04DX003 (ip), vehicle: suspension in saline); 182 % of control (dose: 80.0 mg/kg/injection, schedule: Q04DX003 (ip), vehicle: saline); 112 % of control (dose: 100.0 mg/kg/injection, schedule: Q04DX003 (ip), vehicle: suspension in saline).

Turning to `COc1ccc2nc3cc(Cl)ccc3c(NCCC[N+](C)(C)CCCCCCCCCCCCCCCC[N+](C)(C)CCCNc3c4ccc(Cl)cc4nc4ccc(OC)cc34)c2c1`, the T/C was 96 % of control (dose: 1.56 mg/kg/injection, schedule: Q01DX009 (ip), vehicle: other); 94 % of control (dose: 3.13 mg/kg/injection, schedule: Q01DX009 (ip), vehicle: other); 105 % of control (dose: 6.25 mg/kg/injection, schedule: Q01DX009 (ip), vehicle: other).

On to `CCC(CC)C(=O)OCCCCOC(=O)C(CC)CC`, for which the T/C was 93 % of control under setting [9]; 107 % of control (dose: 200.0 mg/kg/injection, schedule: Q04DX003 (ip), vehicle: saline); 107 % of control (dose: 400.0 mg/kg/injection, schedule: Q04DX003 (ip), vehicle: saline).

On to `O=C1c2ccccc2CCC1(Br)C(Br)c1ccccc1` (stereo not given), for which the T/C is, setting by setting: (dose: 100.0 mg/kg/injection, schedule: Q01DX009 (ip), vehicle: Klucel (hydroxypropylcellulose) (HPC)) 100 % of control; (dose: 200.0 mg/kg/injection, schedule: Q01DX009 (ip), vehicle: Klucel (hydroxypropylcellulose) (HPC)) 100 % of control; (dose: 400.0 mg/kg/injection, schedule: Q01DX009 (ip), vehicle: Klucel (hydroxypropylcellulose) (HPC)) 96 % of control.

The values above are taken from PubChem BioAssay AID256 (DTP/NCI, 2004).
